Data set [1] deals with Sweetpotato whitefly-crawler (Bemisia tabaci) (BEMITA). The experiment in a line: Insecticidal test for sweetpotato whitefly-crawler in foliar spray assay on cotton plants. The data set is classed as in vivo. The settings on record: 200 ppm foliar spray, graded after 8-9 days, Abbott corrected % control, read-out: BEMITA % Ctrl @ 200 ppm. How it is done:
Cotton plants grown in 3-inch pots, with 1 small (3-5 cm) true leaf, were used as test substrate. The plants were placed in a room with whitefly adults. Adults were allowed to deposit eggs for 2-3 days. After a 2-3 day egg-laying period, plants were taken from the adult whitefly room. Adults were blown off leaves using a hand-held Devilbiss sprayer (23 psi). Plants with egg infestation (100-300 eggs per plant) were placed in a holding room for 5-6 days at 82° F. and 50% RH for egg hatch and crawler stage to develop. Four cotton plants were used for each treatment. Compounds (2 mg) were dissolved in 1 mL of acetone solvent, forming stock solutions of 2000 ppm. The stock solutions were diluted 10× with 0.025% Tween 20 in H2O to obtain a test solution at 200 ppm. A hand-held Devilbiss sprayer was used for spraying a solution to both sides of cotton leaf until runoff. Reference plants (solvent check) were sprayed with the diluent only. Treated plants were held in a holding room for 8-9 days at approximately 82° F. and 50% RH prior to grading. Evaluation was conducted by counting the number of live nymphs per plant under a microscope. Insecticidal activity was measured by using Abbott's correction formula and presented in “Table 4. Biological Data for GPA (MYZUPE) and sweetpotato whitefly-crawler (BEMITA)” (see column “BEMITA”): Corrected % Control=100*(X−Y)/X • where X=No. of live nymphs on solvent check plants • Y=No. of live nymphs on treated plants Pesticidally Acceptable Acid Addition Salts, Salt Derivatives, Solvates, Ester Derivatives, Polymorphs, Isotopes and Radionuclides

The subject of data set [2] is Green Peach Aphid (GPA) (Myrzus persicae) (MYZUPE). The experiment in a line: Bioassay on green peach aphid (GPA), foliar spray on cabbage seedlings. The data set is classed as in vivo. The settings on record: Myzus persicae, 72 h, 200 ppm foliar spray, graded after three days, Abbott corrected % control, read-out: MYZUPE % Ctrl @ 200 ppm. How it is done: Certain molecules disclosed in this document were tested against GPA using procedures described in the following example. In the reporting of the results, “Table 3: GPA (MYZUPE) and sweetpotato whitefly-crawler (BEMITA) Rating Table” was used (See Table Section).
Cabbage seedlings grown in 3-inch pots, with 2-3 small (3-5 cm) true leaves, were used as test substrate. The seedlings were infested with 20-50 GPA (wingless adult and nymph stages) one day prior to chemical application. Four pots with individual seedlings were used for each treatment. Test compounds (2 mg) were dissolved in 2 mL of acetone/methanol (1:1) solvent, forming stock solutions of 1000 ppm test compound. The stock solutions were diluted 5× with 0.025% Tween 20 in H2O to obtain the solution at 200 ppm test compound. A hand-held aspirator-type sprayer was used for spraying a solution to both sides of […] leaves until runoff. Reference plants (solvent check) were sprayed with the diluent only containing 20% by volume of acetone/methanol (1:1) solvent. Treated plants were held in a holding room for three days at approximately 25° C. and ambient relative humidity (RH) prior to grading. Evaluation was conducted by counting the number of live aphids per plant under a microscope. Percent Control was measured by using Abbott's correction formula (W. S. Abbott. “A Method of Computing the Effectiveness of an Insecticide” J. Econ. Entomol. 18 (1925), pp. 265-267) as follows. Corrected % Control=100*(X−Y)/X • where • X=No. of live aphids on solvent check plants and • Y=No. of live aphids on treated plants
Biological Data for GPA (MYZUPE) and sweetpotato whitefly-crawler (BEMITA)” (See Table Section).

In turn, `C#CCN(C(=O)CC(SC)C1CC1)c1cn(-c2cccnc2)nc1Cl` (stereo not drawn) [Compound 619] registered a melting point of 109 to 112 °C. The pest or weed control at 200 ppm in data set [1] was in the range of 80 to 100%. In data set [2], the pest or weed control at 200 ppm lay in the range of 80 to 100%.

The values above are taken from patent US10165775B2, “Pesticidal compositions and processes related thereto” (Dow AgroSciences LLC, priority 2011, dated 2019).
